Reference: ChEMBL document CHEMBL5653615 (J Biol Chem, 2013)

What was measured:
[1] = biological target: Macrophage-stimulating protein receptor (Homo sapiens) (UniProt Q04912); test: Inhibition of human MST1R at 1.82 nM by HotSpot assay relative to control
[2] = biological target: T1, Dual specificity tyrosine-phosphorylation-regulated kinase 3 (Homo sapiens) (UniProt O43781); test: Inhibition of human DYRK3 at 18.6 nM by HotSpot assay relative to control
T1 sequence (whole entry): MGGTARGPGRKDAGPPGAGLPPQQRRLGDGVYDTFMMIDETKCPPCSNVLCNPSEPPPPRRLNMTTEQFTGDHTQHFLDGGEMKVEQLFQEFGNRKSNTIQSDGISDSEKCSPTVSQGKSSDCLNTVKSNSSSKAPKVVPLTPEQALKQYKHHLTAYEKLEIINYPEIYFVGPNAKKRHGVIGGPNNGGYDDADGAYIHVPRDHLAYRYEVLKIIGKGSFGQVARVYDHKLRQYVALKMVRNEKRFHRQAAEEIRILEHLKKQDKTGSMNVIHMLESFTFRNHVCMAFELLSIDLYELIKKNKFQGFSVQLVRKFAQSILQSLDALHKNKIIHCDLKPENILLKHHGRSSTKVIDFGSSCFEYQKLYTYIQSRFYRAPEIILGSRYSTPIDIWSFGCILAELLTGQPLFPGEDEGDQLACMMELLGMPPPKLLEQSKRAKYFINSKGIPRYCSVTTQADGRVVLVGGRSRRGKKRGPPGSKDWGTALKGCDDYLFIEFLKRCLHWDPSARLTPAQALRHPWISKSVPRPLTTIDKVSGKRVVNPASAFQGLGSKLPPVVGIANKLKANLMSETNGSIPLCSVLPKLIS

[3] = biological target: T2, cGMP-dependent protein kinase 1 (Homo sapiens) (UniProt Q13976); test: Inhibition of human PKG1a at 18.6 nM by HotSpot assay relative to control
T2 sequence (whole entry): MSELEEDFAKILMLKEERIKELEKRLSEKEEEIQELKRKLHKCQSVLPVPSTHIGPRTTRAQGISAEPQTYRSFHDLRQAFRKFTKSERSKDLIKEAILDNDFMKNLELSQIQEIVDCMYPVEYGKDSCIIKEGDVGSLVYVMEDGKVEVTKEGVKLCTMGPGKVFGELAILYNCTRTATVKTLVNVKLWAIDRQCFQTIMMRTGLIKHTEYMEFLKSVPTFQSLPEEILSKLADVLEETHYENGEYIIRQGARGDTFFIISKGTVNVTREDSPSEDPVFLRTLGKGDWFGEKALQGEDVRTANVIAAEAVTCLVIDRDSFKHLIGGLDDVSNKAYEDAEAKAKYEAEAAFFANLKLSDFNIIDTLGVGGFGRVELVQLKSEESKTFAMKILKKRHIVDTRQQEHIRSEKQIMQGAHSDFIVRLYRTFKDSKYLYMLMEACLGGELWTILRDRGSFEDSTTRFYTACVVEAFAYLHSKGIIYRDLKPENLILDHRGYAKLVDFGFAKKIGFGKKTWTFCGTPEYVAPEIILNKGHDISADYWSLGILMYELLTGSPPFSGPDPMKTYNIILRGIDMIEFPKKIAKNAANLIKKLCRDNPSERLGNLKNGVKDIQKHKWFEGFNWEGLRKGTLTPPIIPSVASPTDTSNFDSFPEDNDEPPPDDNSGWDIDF

[4] = biological target: Serine/threonine-protein kinase PAK 1 (Homo sapiens) (UniProt Q13153); test: Inhibition of human PAK1 at 18.6 nM by HotSpot assay relative to control
[5] = biological target: T3, Ephrin type-A receptor 1 (Homo sapiens) (UniProt P21709); test: Inhibition of human EPHA1 at 18.6 nM by HotSpot assay relative to control
T3 sequence (whole entry): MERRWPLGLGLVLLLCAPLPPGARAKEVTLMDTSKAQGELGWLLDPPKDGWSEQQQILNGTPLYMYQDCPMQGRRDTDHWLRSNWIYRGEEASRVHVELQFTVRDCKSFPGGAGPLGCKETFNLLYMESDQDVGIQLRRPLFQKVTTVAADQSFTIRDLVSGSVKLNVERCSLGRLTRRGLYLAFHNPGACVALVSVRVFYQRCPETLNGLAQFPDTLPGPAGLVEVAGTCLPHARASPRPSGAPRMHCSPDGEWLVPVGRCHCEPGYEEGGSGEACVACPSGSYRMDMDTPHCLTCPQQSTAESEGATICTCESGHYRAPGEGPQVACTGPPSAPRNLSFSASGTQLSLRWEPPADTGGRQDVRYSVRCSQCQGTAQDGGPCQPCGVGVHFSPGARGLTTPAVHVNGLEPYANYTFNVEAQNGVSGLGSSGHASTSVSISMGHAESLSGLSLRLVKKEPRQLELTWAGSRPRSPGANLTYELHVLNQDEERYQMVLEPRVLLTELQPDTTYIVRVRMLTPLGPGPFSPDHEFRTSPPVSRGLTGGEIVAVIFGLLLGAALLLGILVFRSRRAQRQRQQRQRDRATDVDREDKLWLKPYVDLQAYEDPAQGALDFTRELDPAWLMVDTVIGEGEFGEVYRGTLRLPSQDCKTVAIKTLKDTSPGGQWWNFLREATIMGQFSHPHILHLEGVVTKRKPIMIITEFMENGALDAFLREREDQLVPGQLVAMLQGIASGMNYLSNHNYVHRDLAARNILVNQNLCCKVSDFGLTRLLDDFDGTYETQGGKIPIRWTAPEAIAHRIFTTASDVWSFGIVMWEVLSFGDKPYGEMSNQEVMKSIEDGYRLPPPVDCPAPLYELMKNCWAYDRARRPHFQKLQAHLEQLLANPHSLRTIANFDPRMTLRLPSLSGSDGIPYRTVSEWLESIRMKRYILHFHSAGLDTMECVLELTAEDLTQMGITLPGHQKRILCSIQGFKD

[6] = biological target: T4, Serine/threonine-protein kinase NLK (Homo sapiens) (UniProt Q9UBE8); test: Inhibition of human NLK at 18.6 nM by HotSpot assay relative to control
T4 sequence (whole entry): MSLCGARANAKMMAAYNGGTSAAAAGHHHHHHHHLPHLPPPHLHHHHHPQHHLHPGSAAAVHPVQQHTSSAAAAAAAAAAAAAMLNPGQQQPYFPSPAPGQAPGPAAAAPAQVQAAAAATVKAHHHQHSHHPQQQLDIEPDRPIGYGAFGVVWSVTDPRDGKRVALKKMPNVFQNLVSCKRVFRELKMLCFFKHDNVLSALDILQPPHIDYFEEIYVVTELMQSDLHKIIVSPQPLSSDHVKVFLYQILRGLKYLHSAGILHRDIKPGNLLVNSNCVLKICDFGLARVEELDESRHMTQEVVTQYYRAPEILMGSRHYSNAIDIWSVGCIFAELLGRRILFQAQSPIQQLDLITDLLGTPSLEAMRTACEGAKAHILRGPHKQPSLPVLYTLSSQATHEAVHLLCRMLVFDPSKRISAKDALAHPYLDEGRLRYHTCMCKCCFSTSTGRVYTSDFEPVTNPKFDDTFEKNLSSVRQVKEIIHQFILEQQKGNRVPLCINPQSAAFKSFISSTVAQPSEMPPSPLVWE

Homo sapiens = organism: Homo sapiens; test: Inhibition of human TAO1 at 18.6 nM by HotSpot assay relative to control

Chain of Macrophage-stimulating protein receptor (Homo sapiens) (Q04912 25-304 limits assumed): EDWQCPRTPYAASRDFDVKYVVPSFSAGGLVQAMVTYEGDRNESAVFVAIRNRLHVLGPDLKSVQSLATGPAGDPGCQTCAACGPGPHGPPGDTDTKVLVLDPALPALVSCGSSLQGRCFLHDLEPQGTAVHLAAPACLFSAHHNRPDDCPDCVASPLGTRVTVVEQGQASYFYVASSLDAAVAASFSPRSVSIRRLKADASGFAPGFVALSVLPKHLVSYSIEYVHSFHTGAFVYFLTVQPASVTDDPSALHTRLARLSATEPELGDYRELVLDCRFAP
Chain of Macrophage-stimulating protein receptor (Homo sapiens) (Q04912 310-1400 limits assumed): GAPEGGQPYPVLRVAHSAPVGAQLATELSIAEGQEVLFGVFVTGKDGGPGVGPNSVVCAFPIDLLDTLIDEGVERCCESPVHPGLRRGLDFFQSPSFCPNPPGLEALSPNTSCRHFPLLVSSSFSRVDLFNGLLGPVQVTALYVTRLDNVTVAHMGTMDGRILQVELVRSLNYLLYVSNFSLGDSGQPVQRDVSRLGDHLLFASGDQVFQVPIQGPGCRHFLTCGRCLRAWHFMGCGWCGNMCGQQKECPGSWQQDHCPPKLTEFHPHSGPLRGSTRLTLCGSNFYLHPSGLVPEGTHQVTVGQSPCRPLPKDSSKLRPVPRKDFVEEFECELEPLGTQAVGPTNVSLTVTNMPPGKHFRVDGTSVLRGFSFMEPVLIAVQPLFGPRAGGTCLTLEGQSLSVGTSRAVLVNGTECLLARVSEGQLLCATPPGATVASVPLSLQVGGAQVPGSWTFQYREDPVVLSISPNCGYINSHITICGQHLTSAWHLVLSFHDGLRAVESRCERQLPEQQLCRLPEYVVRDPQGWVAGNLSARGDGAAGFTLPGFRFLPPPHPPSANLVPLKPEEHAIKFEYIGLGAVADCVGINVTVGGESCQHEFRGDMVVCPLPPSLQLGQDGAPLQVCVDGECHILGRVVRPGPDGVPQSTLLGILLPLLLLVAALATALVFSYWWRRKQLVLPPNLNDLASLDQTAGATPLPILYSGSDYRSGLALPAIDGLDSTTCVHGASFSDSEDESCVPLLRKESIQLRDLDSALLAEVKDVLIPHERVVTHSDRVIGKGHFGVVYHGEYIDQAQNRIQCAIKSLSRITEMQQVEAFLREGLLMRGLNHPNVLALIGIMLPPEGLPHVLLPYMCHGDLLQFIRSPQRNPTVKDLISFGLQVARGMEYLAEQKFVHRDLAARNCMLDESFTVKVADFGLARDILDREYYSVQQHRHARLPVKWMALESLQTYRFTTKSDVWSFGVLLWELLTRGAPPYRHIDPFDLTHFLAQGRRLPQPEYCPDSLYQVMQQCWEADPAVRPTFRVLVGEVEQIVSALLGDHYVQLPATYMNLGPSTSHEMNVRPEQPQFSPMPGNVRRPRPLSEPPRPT
Chain of Serine/threonine-protein kinase PAK 1 (Homo sapiens) (Q13153 whole entry): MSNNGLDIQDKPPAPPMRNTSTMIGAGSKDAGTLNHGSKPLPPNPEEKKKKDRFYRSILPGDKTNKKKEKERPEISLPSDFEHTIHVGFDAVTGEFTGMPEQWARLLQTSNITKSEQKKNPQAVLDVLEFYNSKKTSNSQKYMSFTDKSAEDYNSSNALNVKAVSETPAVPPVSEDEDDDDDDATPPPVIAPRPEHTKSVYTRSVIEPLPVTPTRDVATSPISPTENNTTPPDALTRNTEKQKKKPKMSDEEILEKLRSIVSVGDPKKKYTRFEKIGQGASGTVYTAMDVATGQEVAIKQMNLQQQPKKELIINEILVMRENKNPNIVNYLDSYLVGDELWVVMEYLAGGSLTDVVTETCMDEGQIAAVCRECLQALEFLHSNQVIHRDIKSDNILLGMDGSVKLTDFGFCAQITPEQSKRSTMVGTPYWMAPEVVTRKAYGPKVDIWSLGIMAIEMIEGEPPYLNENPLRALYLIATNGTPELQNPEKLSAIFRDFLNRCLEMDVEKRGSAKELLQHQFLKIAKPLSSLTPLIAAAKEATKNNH

Row | SMILES | inhibition [1] [%] | inhibition [2] [%] | inhibition [3] [%] | inhibition [4] [%] | inhibition [5] [%] | inhibition [6] [%] | inhibition (Homo sapiens) [%]
1 | C[C@@]1(C(=O)Nc2ccc(F)nc2)CCCN1c1nc(Nc2cc(C3CC3)n[nH]2)c2cccn2n1 | 0.1 |  |  |  |  |  | 
2 | C[C@]1(O)C[C@@H](c2nc(-c3ccc4ccc(-c5ccccc5)nc4c3)c3c(N)nccn32)C1 |  | 3.01 | 5.49 | -0.8 | -4.97 | -1.35 | 1.8
